The values below come from patent US7198804B2, “Crude drug composition for preventing and treating gastrointestinal dyskinetic diseases” (Helixir Co., Ltd., priority 2002, dated 2007).

Data set [1] has as its system gastrointestinal motility. The data set is described as follows: Gastrointestinal transit (GIT) of charcoal meal in mice. Type of data set: in vivo, ICR derived mice. The conditions noted are these: for GIT: mean±S.E.M. How it is done: Female ICR derived mice (Seoul National University) weighing 22±2 grams were used. All animals were maintained in a controlled environment with temperatures at 22° C.–24° C. and humidity at 60%–80% with 12 hours of light and dark cycles for at least one week prior to use. 9 groups of 8 ICR derived female mice were fasted with free access to water for 16 hours prior to testing.
For the estimation of the effect on gastrointestinal motility, 0.1 g of the brown powder of each formulation obtained in Example 1, was dissolved in 1 ml of 2% Tween 80 (Wako, Japan) and administrated orally to the mice.
Atropine sulfate (Sigma, USA) was used for the negative control in the experiment, which is known to induce smooth muscle relaxation. Mosapride citrate was administered at 20 mg/kg. Each crude drug composition of 6 formulations prepared in Example 1, was administered at 1.0 g/kg. At 60 minutes post dosing, the animals were given a suspension of 5% activated charcoal (Sigma, USA) in a 10% arabic gum (Sigma, USA) solution (0.3 ml/animal p.o.) and sacrificed 15 minutes later.
The intestine was removed and the length of the gut in cm (GL) as well as distance of charcoal movement from the pylorus to the beginning of the charcoal column in cm (CP), was measured. Gastrointestinal transit (GIT) has been calculated as below Formula 1. The mean GIT value of each group has been compared to that of the vehicle control. GIT(%)=(CP/GL)×100 Formula 1
Values were expressed as means±S.E.M. Students' t-test was used for the statistical analysis of the results of gastrointestinal transit. Probability values (p) less than 0.05 were considered to be significant.
PG202, prepared in Example 1, was administered into the mice orally at concentrations of 0.1 g/kg, 1.0 g/kg, and 5.0 g/kg. The control group was administered with the vehicle (2% Tween 80) at 10 ml/kg. At 60 minutes post dosing, the animals were given a suspension of 5% activated charcoal (Sigma, USA) in a 10% Arabic gum (Sigma, USA) solution (0.3 ml/animal p.o.) and sacrificed 15 minutes later and the gastrointestinal transit (GIT) was examined according to the Formula 1. Data have been expressed as means±S.E.M.*p<0.05.
PG202 was administrated orally at 1.0 g/kg to the test group, 2% Tween 80 (Wako, Japan) at 10 ml/kg to control group, Mosapride citrate at 20 mg/kg to positive control group, Atropine sulfate (Sigma, USA) at 100 mg/kg to negative control group. Data have been expressed as means±S.E.M.*p<0.05.
At 60 minutes post dosing, the animals were given a suspension of 5% activated charcoal (Sigma, USA) in a 10% arabic gum (Sigma, USA) solution (0.3 ml /animal p.o.) and sacrificed 15 minutes later. GIT (%) values were determined according to the Formula 1.

A further data set has as its system rodents. The note with it: cited from earlier work.

The structures appear in SMILES notation. Counter-ions that a name gives are not always drawn.

As for `CN1[C@@H]2CC[C@H]1CC(OC(=O)C(CO)c1ccccc1)C2.CN1[C@@H]2CC[C@H]1CC(OC(=O)C(CO)c1ccccc1)C2.O=S(=O)(O)O` (some centres unmarked) [Atropine, Atropine sulfate], the “decrease of GIT in comparison to the control group” value in data set [1] (100 mg/kg p.o.) is given as 35%. This compound also showed a GIT in data set [1] (100 mg/kg p.o., negative control) of 35.4±3.4%.
On to `CCOc1cc(N)c(Cl)cc1C(=O)NCC1CN(Cc2ccc(F)cc2)CCO1` (centres unmarked) [mosapride citrate], for which the “increase of GIT compared to the control” value in data set [1] (20 mg/kg p.o.) is on record as 21%. The compound also yielded a GIT in data set [1] (20 mg/kg p.o., positive control) of 63.7±5.2%. In addition, the “incidence of hepatocellular adenoma and thyroid follicular cell adenoma” value in the data set on rodents is “increased”.
